From US11952364B2, “TRK inhibitors useful as anticancer drugs” (TYLIGAND BIOSCIENCE (SHANGHAI) LIMITED, priority 2018, dated 2024)

What follows are compounds tested on Ba/F3 ETV6-NTRK3-G696C cells (assay: Proliferation of Ba/F3 ETV6-NTRK3-G696C cells (CellTiter-Glo)). Conditions: Mus musculus, BaF3, 72 h, Table 7; 72 hours; read-out: Ba/F3 ETV6-NTRK3-G696C, IC50.
Assay type: cell-based, mouse
Description: Ba/F3 ETV6-NTRK3-G696C is a stable transgenic cell line constructed by KYinno Biotechnology Co., Ltd. on mouse primary B cell Ba/F3 wherein NTRK3 is highly expressed with a mutation of G at position […] to C and fused with ETV6 to form ETV6-NTRK3. • [Test method]: Promega's CellTiter-Glo® Luminescent Cell Viability Assay kit was used to evaluate the inhibitory activity of the compounds on the proliferation of Ba/F3 ETV6-NTRK3-G696C cells. • [Instrument]: Spectramax M3 multifunctional microplate reader from Molecular Devices. • [Test materials]: Ba/F3 ETV6-NTRK3-G696C cell line (constructed by KYinno Biotechnology Co., Ltd. (Beijing)), 96-well transparent flat-bottomed black-walled cell culture plate (Corning, cat #3603), RPMI-1640 media (GE, product number #SH30027.01), fetal bovine serum FBS (Thermo Fisher, cat #10099-141), CellTiter-Glo® Luminescent Cell Viability Assay kit (Promega, cat #G7572), PBS (Solarbio, cat #P1020), DMSO (Sigma, cat #D2650). • [Experimental procedure]: When resuscitating Ba/F3 ETV6-NTRK3-G696C cells, • the freezing tube was quickly shaken in a 37° C. water bath to melt within 1 minute. The thawed cell suspension was mixed uniformly with RPMI1640 medium containing 10% FBS, centrifuged at 1000 rpm for 5 minutes, and the supernatant discarded. 5 mL of complete medium (RPMI1640 medium with 10% FBS) was taken to resuspend the cell pellets, charged into a cell culture flask with a bottom area of 25 cm^2, and incubated in a cell incubator at 37° C., 95% humidity and 5% CO2. Cells were allowed to passage when the number of cells reached about 10^6 cells/mL. For cell passage, the old cell suspension was directly pipetted evenly, 1/5 of the cell suspension was kept, 4 mL of new complete medium was added, after pipetting evenly, the cell flask was placed in the cell incubator for further culturing. Cell plating was performed when the number of cells reached about 10^6 cells/mL again. For cell plating, 1/5 of the cell suspension was kept for further culturing as in the cell passage method, and the remaining 4/5 of the cell suspension was placed in a 15 mL centrifuge tube, detected for cell viability by Trypan blue exclusion method to ensure that cell viability was above 90%. A cell suspension with a density of 5.56×10^4 viable cells/mL was prepared with complete medium, and 90 μL of such cell suspension was added to a 96-well cell culture plate to obtain the cell density of 5000 viable cells/mL in the cell culture plate. A control group containing no cells, no compound and only complete medium (i.e. culture medium control) and a control group containing no compound but containing cells (i.e. cell control) were set. The cell plate was placed in a cell incubator overnight. The 10 mM compound stock solution in DMSO was first serially diluted with DMSO at a dilution factor of 3.16 times, to obtain 9 concentrations, and the 10th concentration was set as DMSO control without compound. Then, PBS was used to dilute the DMSO solutions of compounds of different concentrations, at a dilution factor of 100 times, so that the DMSO concentration in the compound solution of each concentration was 1%. Finally, 10 μL of each of the above solutions was added to the corresponding cell culture plate, so that the initial compound concentration was 10 μM, with the remaining concentrations being successively diluted at a dilution factor of 3.16 times, and the DMSO content in the cell culture plate was 0.1%. The cell plate was placed in a cell incubator and cultured for 72 hours. For endpoint detection, the CellTiter-Glo reagent was melted, and the cell plate was moved to room temperature to equilibrate for 30 minutes, added with 100 μL of CellTiter-Glo for each well, and shaken on an orbital shaker for 5 minutes to fully lyse the cells. […]

SMILES | IC50 [nM]
CCc1ccc(C(=O)Nc2ccc(Oc3cc4cnn(C)c4cc3-c3cn[nH]c3)c(F)c2)c(=O)n1-c1ccc(F)cc1 [Example 5, N-(3-fluoro-4-(1-methyl-6-(1H-pyrazol-4-yl)-1H-indazol-5-yloxy)phenyl)-1-(4-fluorophenyl)-6-ethyl-2-oxo-1,2-dihydropyridine-3-carboxamide] | 6.8
Cn1ncc2cc(Oc3ccc(NC(=O)c4ccc(C(F)(F)F)n(-c5ccc(F)cc5)c4=O)cc3F)c(-c3cn[nH]c3)cc21 [Example 1, N-(3-fluoro-4-(1-methyl-6-(1H-pyrazol-4-yl)-1H-indazol-5-yloxy)phenyl)-1-(4-fluorophenyl)-6-trifluoromethyl-2-oxo-1,2-dihydmpyridine-3-carboxamide monomethanesulfonate] | 33
CC(C)c1ccc(C(=O)Nc2ccc(Oc3cc4cnn(C)c4cc3-c3cn[nH]c3)c(F)c2)c(=O)n1-c1ccc(F)cc1 [Example 6, N-(3-fluoro-4-(1-methyl-6-(1H-pyrazol-4-yl)-1H-indazol-5-yloxy)phenyl)-1-(4-fluorophenyl)-6-isopropyl-2-oxo-1,2-dihydropyridine-3-carboxamide] | 16
O=C(Nc1cnn2ccc(N3CCC[C@@H]3c3cc(F)ccc3F)nc12)N1CC[C@H](O)C1 [LOXO-101, Larotrectinib, reference compound] | 1890
Cc1ccc(C(=O)Nc2ccc(Oc3cc4cnn(C(C)C)c4cc3-c3cn[nH]c3)c(F)c2)c(=O)n1-c1ccc(F)cc1 [Example 4, N-(3-fluoro-4-(1-isopropyl-6-(1H-pyrazol-4-yl)-1H-indazol-5-yloxy)phenyl)-1-(4-fluorophenyl)-6-methyl-2-oxo-1,2-dihydmpyridine-3-carboxamide] | 34
Cn1ncc2cc(Oc3ccc(NC(=O)c4ccc(C5CC5)n(-c5ccc(F)cc5)c4=O)cc3F)c(-c3cn[nH]c3)cc21 [Example 2, N-(3-fluoro-4-(1-methyl-6-(1H-pyrazol-4-yl)-1H-indazol-5-yloxy)phenyl)-1-(4-fluorophenyl)-6-cyclopropyl-2-oxo-1,2-dihydmpyridine-3-carboxamide] | 20
Cc1ccc(C(=O)Nc2ccc(Oc3cc4cnn(C)c4cc3-c3cn[nH]c3)c(F)c2)c(=O)n1-c1ccc(F)cc1 [Merestinib, reference compound] | 10

Same assay, conditions: Mus musculus, BaF3, Table 7-1; separate test; read-out: Ba/F3 ETV6-NTRK3-G696C, IC50

SMILES | IC50 [nM]
CCn1ncc2cc(Oc3ccc(NC(=O)c4ccc(OC)n(-c5ccc(F)cc5)c4=O)cc3F)c(-c3cn[nH]c3)cc21 [Example 23, N-(3-fluoro-4-(1-ethyl-6-(1H-pyrazol-4-yl)-1H-indazol-5-yloxy)phenyl)-1-(4-fluorophenyl)-6-methoxy-2-oxo-1,2-dihydropyridine-3-carboxamide] | 11
CCn1ncc2cc(Oc3ccc(NC(=O)c4ccc(C5CC5)n(-c5ccc(F)cc5)c4=O)cc3F)c(-c3cn[nH]c3)cc21 [Example 19, N-(3-fluoro-4-(1-ethyl-6-(1H-pyrazol-4-yl)-1H-indazol-5-yloxy)phenyl)-1-(4-fluorophenyl)-6-cyclopropyl-2-oxo-1,2-dihydropyridine-3-carboxamide] | 14
CCc1ccc(C(=O)Nc2ccc(Oc3cc4cnn(CC)c4cc3-c3cn[nH]c3)c(F)c2)c(=O)n1-c1ccc(F)cc1 [Example 18, N-(3-fluoro-4-(1-ethyl-6-(1H-pyrazol-4-yl)-1H-indazol-5-yloxy)phenyl)-1-(4-fluorophenyl)-6-ethyl-2-oxo-1,2-dihydropyridine-3-carboxamide] | 12
Cc1ccc(C(=O)Nc2ccc(Oc3cc4cnn(C)c4cc3-c3cn[nH]c3)c(F)c2)c(=O)n1-c1ccc(F)cc1 [Merestinib, reference compound] | 13
COc1ccc(C(=O)Nc2ccc(Oc3cc4cnn(C)c4cc3-c3cn[nH]c3)c(F)c2)c(=O)n1-c1ccc(F)cc1 [Example 12, N-(3-fluoro-4-(1-methyl-6-(1H-pyrazol-4-yl)-1H-indazol-5-yloxy)phenyl)-1-(4-fluorophenyl)-6-methoxy-2-oxo-1,2-dihydropyridine-3-carboxamide] | 3

Same assay, conditions: Mus musculus, BaF3, Table 7-2; separate test; read-out: Ba/F3 ETV6-NTRK3-G696C, IC50

SMILES | IC50 [nM]
CSc1ccc(C(=O)Nc2ccc(Oc3cc4cnn(C)c4cc3-c3cn[nH]c3)c(F)c2)c(=O)n1-c1ccc(F)cc1 [Example 11, N-(3-fluoro-4-(1-methyl-6-(1H-pyrazol-4-yl)-1H-indazol-5-yloxy)phenyl)-1-(4-fluorophenyl)-6-methylthio-2-oxo-1,2-dihydropyidine-3-carboxamide] | 1.8
CCOc1ccc(C(=O)Nc2ccc(Oc3cc4cnn(C)c4cc3-c3cn[nH]c3)c(F)c2)c(=O)n1-c1ccc(F)cc1 [Example 14, N-(3-fluoro-4-(1-methyl-6-(1H-pyrazol-4-yl)-1H-indazol-5-yloxy)phenyl)-1-(4-fluorophenyl)-6-ethoxy-2-oxo-12-dihydropyridine-3-carboxamide] | 1.6
CCn1ncc2cc(Oc3ccc(NC(=O)c4ccc(OC(C)C)n(-c5ccc(F)cc5)c4=O)cc3F)c(-c3cn[nH]c3)cc21 [Example 26, N-(3-fluoro-4-(1-ethyl-6-(1H-pyrazol-4-yl)-1H-indazol-5-yloxy)phenyl)-1-(4-fluorophenyl)-6-isopropoxy-2-oxo-1,2-dihydropyridine-3-carboxamide] | 3.1
CC(C)Oc1ccc(C(=O)Nc2ccc(Oc3cc4cnn(C)c4cc3-c3cn[nH]c3)c(F)c2)c(=O)n1-c1ccc(F)cc1 [Example 16, N-(3-fluoro-4-(1-methyl-6-(1H-pyrazol-4-yl)-1H-indazol-5-yloxy)phenyl)-1-(4-fluorophenyl)-6-isopropoxy-2-oxo-1,2-dihydropyridine-3-carboxamide] | 1.2
Cc1ccc(C(=O)Nc2ccc(Oc3cc4cnn(C)c4cc3-c3cn[nH]c3)c(F)c2)c(=O)n1-c1ccc(F)cc1 [Merestinib, reference compound] | 1.7

Same assay, conditions: Mus musculus, BaF3, Table 9; read-out: Ba/F3 ETV6-NTRK3-G696C cell proliferation inhibitory activity (IC50)

SMILES | IC50 [nM]
CC(C)Oc1ccc(C(=O)Nc2ccc(Oc3cc4cnn5c4c(c3-c3cn[nH]c3)CC5)c(F)c2)c(=O)n1-c1ccc(F)cc1 [Example 34, N-(4-((5-(1H-pyrazol-4-yl)-6,7-dihydropyrrolo[3,2,1-hi]-indazol-4-yl)oxy)-3-fluorophenyl)-1-(4-fluorophenyl)-6-isopropoxy-2-oxo-12-dihydropyrndine-3-carboxamide] | 4.8
CCOc1ccc(C(=O)Nc2ccc(Oc3cc4cnn5c4c(c3-c3cn[nH]c3)CC5)c(F)c2)c(=O)n1-c1ccc(F)cc1 [Example 32, N-(4-((5-(1H-pyrazol-4-yl)-6,7-dihydropyrrolo[3,2,1-hi]-indazol-4-yl)oxy)-3-fluorophenyl)-6-ethoxy-1-(4-fluorophenyl)-2-oxo-12-dihydropyridine-3-carboxamide] | 4.7
Cc1ccc(C(=O)Nc2ccc(Oc3cc4cnn5c4c(c3-c3cn[nH]c3)CC5)c(F)c2)c(=O)n1-c1ccc(F)cc1 [Example 31, N-(4-((5-(1H-pyrazol-4-yl)-6,7-dihydropyrrolo[3,2,1-hi]-indazol-4-yl)oxy)-3-fluorophenyl)-1-(4-fluorophenyl)-6-methyl-2-oxo-1,2-dihydropyridine-3-carboxamide] | 5.3
COc1ccc(C(=O)Nc2ccc(Oc3cc4cnn5c4c(c3-c3cn[nH]c3)CC5)c(F)c2)c(=O)n1-c1ccc(F)cc1 [Example 28, N-(4-((5-(1H-pyrazol-4-yl)-6,7-dihydropyrrolo[3,2,1-hi]-indazol-4-yl)oxy)-3-fluorophenyl)-1-(4-fluorophenyl)-6-methoxy-2-oxo-1,2-dihydropyidine-3-carboxamide] | 3.6

Same assay, conditions: Table 7-2; separate test; read-out: Ba/F3 ETV6-NTRK3-G696C, IC50

SMILES | IC50 [nM]
CCOc1ccc(C(=O)Nc2ccc(Oc3cc4cnn(CC)c4cc3-c3cn[nH]c3)c(F)c2)c(=O)n1-c1ccc(F)cc1 [Example 24, N-(3-fluoro-4-(1-ethyl-6-(1H-pyrazol-4-yl)-1H-indazol-5-yloxy)phenyl)-1-(4-fluorophenyl)-6-ethoxy-2-oxo-12-dihydropyridine-3-carboxamide] | 3.5
